Measured values from US5543422A, “Heterocyclic amines” (British Technology Group Limited, priority 1992, dated 1996).
Where a name gives a salt, the structure may show the parent alone.

Tested on: not listed separately
Assay: base strength (pka) of the terminal amine
Format: physicochemical
Details: Table 5, terminal amine

Row | SMILES | pKa
1 | c1ccc2c(OCCCCN3CCCC3)cccc2c1 [pyrrolidine, N-4-(naphth-1-yloxy)butylpyrrolidine] | 10.3
2 | c1ccc2c(OCCCCN3CCOCC3)cccc2c1 [α 4 0] | 7.41
3 | c1ccc2c(OCCCCn3ccnc3)cccc2c1 [imidazole] | 7.33
4 | c1ccc2c(OCCCCN3CCCCC3)cccc2c1 [α 4 CH2, -4-(naphth-1-yloxy)butylpiperidine oxalate] | 10.1
5 | NCCCCOc1cccc2ccccc12 [NH2] | 10.6

Biological target: T1, calmodulin (Bos taurus, UniProt P62157)
T1 construct: a sufficient amount of bovine brain calmodulin; from tissue; host or cells: bovine brain (calmodulin); bovine heart (PDE)
Assay: inhibition of calmodulin activation of cyclic nucleotide phosphodiesterase (PDE), hydrolysis of [3H] cAMP
Format: biochemical, bovine
Details: Table 1; mean ± S.E. of three assays; * (β CHCH 4 6) mean of two; read-out: IC50 in μM (x ± SE)

Row | SMILES | IC50
6 | C(=Cc1ccc2ccccc2c1)CCCCN1CCCCC1 [β CHCH 4 6, N-6-(naphth-2-yl)hex-5-enylpiperidine oxalate] | 2.2 ± 0.3 µM
7 | c1ccc2c(OCCCCCN3CCCCC3)cccc2c1 [α 5 CH2] | 39.1 ± 8.9 µM
8 | c1ccc2cc(SCCCCCN3CCCCC3)ccc2c1 [β 5 piperdine] | 22.1 ± 3 µM

Same assay, conditions: Table 2; mean ± S.E. of three assays; * (α 3 CH2, β 2 CH2, β 3 CH2, α 3 0, β 2 0) mean of two; read-out: IC50 in μM (x ± SE)

Row | SMILES | IC50
9 | c1ccc2c(OCCCN3CCCCC3)cccc2c1 [α 3 CH2] | 106 ± 18 µM
10 | c1ccc2c(OCCCCCCN3CCCCC3)cccc2c1 [α 6 CH2] | 28.5 ± 2 µM
11 | c1ccc2c(OCCN3CCCCC3)cccc2c1 [α 2 CH2] | 152 ± 18.8 µM
12 | c1ccc2cc(OCCCCCN3CCCCC3)ccc2c1 [β 5 CH2] | 53.9 ± 1.6 µM
13 | c1ccc2c(OCCCCN3CCOCC3)cccc2c1 [α 4 0] | 53.2 ± 10.5 µM
14 | c1ccc2cc(OCCCN3CCOCC3)ccc2c1 [β 3 0] | > 250 µM
15 | c1ccc2cc(OCCCCCN3CCOCC3)ccc2c1 [β 5 0] | 72.7 ± 9.4 µM
16 | c1ccc2c(OCCCCCN3CCOCC3)cccc2c1 [α 5 0] | 42.3 ± 9.1 µM
17 | c1ccc2cc(OCCCCN3CCOCC3)ccc2c1 [β 4 0] | 85.6 ± 7 µM
18 | c1ccc2c(OCCCCN3CCCCC3)cccc2c1 [α 4 CH2, -4-(naphth-1-yloxy)butylpiperidine oxalate] | 7.4 ± 0.5 µM
19 | c1ccc2cc(OCCN3CCOCC3)ccc2c1 [β 2 0] | > 250 µM
20 | c1ccc2cc(OCCN3CCCCC3)ccc2c1 [β 2 CH2] | > 250 µM
21 | c1ccc2c(OCCCCCCCN3CCCCC3)cccc2c1 [α 7 CH2, N-7-(naphth-1-yloxy)heptylpiperidine hydrochloride] | 4.7 ± 0.3 µM
22 | c1ccc2c(OCCN3CCOCC3)cccc2c1 [α 2 0] | > 250 µM
23 | c1ccc2cc(OCCCCN3CCCCC3)ccc2c1 [β 4 CH2] | 55.8 ± 6 µM
24 | c1ccc2cc(OCCCN3CCCCC3)ccc2c1 [β 3 CH2] | 29.2 ± 1.4 µM
25 | c1ccc2c(OCCCN3CCOCC3)cccc2c1 [α 3 0] | 217 ± 24.7 µM
26 | c1ccc2c(OCCCCCCCCN3CCCCC3)cccc2c1 [α 8 CH2] | 5.3 ± 0.3 µM

Same assay, conditions: Table 3; mean ± S.E. of three assays; * (β 6 piperdine) mean of two; read-out: IC50 in μM (x ± SE)

Row | SMILES | IC50
27 | c1ccc2cc(SCCCCCCN3CCCCC3)ccc2c1 [β 6 piperdine] | 12.5 ± 1.5 µM
28 | c1ccc2cc(SCCCN3CCCCC3)ccc2c1 [β 3 piperdine] | 77.7 ± 4.1 µM
29 | c1ccc2cc(SCCCCN3CCCC3)ccc2c1 [β 4 pyrrolidine] | 18 ± 1.3 µM
30 | c1ccc2c(SCCCCN3CCCCC3)cccc2c1 [α 4 piperdine] | 23.6 ± 1.6 µM
31 | c1ccc2cc(SCCCCCN3CCOCC3)ccc2c1 [β 5 morpholine] | 20.1 ± 2.25 µM
32 | c1ccc2cc(SCCCCN3CCCCC3)ccc2c1 [β 4 piperdine] | 12.3 ± 2.6 µM

Same assay, conditions: Table 4, heteroatoms in the side chain; mean ± S.E.; read-out: IC50 in μM (x ± SE)

Row | SMILES | IC50
33 | c1ccc2c(CCNCCCCCN3CCCCC3)cccc2c1 | 11.5 ± 1.6 µM
34 | c1ccc2c(OCCSCCN3CCCCC3)cccc2c1 | 41.7 ± 6.2 µM

Same assay, conditions: Table 5, effect of base strength of the terminal amine; mean ± S.E.; read-out: IC50 in μM (x ± S.E.)

Row | SMILES | IC50
35 | c1ccc2c(OCCCCN3CCCC3)cccc2c1 [pyrrolidine, N-4-(naphth-1-yloxy)butylpyrrolidine] | 4 ± 0.2 µM
36 | c1ccc2c(OCCCCn3ccnc3)cccc2c1 [imidazole] | 68.3 ± 6.7 µM
37 | NCCCCOc1cccc2ccccc12 [NH2] | 3.85 ± 0.2 µM

Same assay, conditions: Table 6, halogen substitution on the naphthalene ring; mean ± S.E.; read-out: IC50 in μM (x ± SE)

Row | SMILES | IC50
38 | Brc1ccc2cc(OCCCCN3CCCCC3)ccc2c1 | 9.3 ± 2 µM

Same assay, conditions: Table 7, effect of the aryl moiety; mean ± S.E. of three assays; * (drawing 9 6 pyrrolidine) mean of two; read-out: IC50 in μM (x ± SE)

Row | SMILES | IC50
39 | c1cc(OCCCCCCN2CCCC2)c2occc2c1 [drawing 9 6 pyrrolidine] | 204 ± 13.3 µM
40 | c1cc(OCCCCN2CCCCC2)c2ccsc2c1 [drawing 8 4 piperdine, N-[4-(benzo[b]thien-4-yloxy)butyl]piperidine oxalate] | 1.8 ± 0.6 µM
41 | c1cc(OCCCCCCN2CCCCC2)c2ccsc2c1 [drawing 8 6 piperdine, N-6-(benzo[b]thien-4-yloxy)hexylpiperidine] | 0.38 ± 0.1 µM
42 | c1cc(OCCCCN2CCCCC2)c2occc2c1 [drawing 9 4 piperdine] | 70.1 ± 8.6 µM
43 | Clc1ccc(OCCCCN2CCCCC2)cc1Cl | 55.3 ± 10 µM
44 | c1cc(OCCCCCCN2CCCC2)c2ccsc2c1 [drawing 8 6 pyrrolidine, N-6-(benzo[b]thien-4-yloxy)hexylpyrrolidine] | 0.22 ± 0.04 µM
45 | c1cc(OCCCCN2CCCC2)c2ccsc2c1 [drawing 8 4 pyrrolidine, N-4-(benzo[b]thien-4-yloxy)butylpyrrolidine] | 0.88 ± 0.14 µM

Same assay, conditions: various concentrations

Row | SMILES | effect on calmodulin-activated PDE
46 | O=C(O)C(=O)O [oxalic acid] | none was found

Tested on: calmodulin-independent PDE
Assay: inhibition of calmodulin-independent activity of PDE
Format: biochemical, bovine
Details: various concentrations
Procedure: The assay was based on the incubation of calmodulin-deficient bovine heart PDE with [^3 H] cyclic adenosine monophosphate (cAMP), and a sufficient amount of bovine brain calmodulin (12.5 ng/100 μl) to give 70-80% activation of the enzyme. The resultant [^3 H] 5'-AMP formed was hydrolysed to [3H] adenosine upon incubation with the 5'-nucleotidase of the Western Diamondback Rattlesnake (Crotalus atrox). The nucleoside was then separated from the unreacted substrate using anion exchange resin. […] The degree of inhibition of calmodulin-activation of PDE in the presence of a range of drugs was expressed as a percentage of the activity of calmodulin-activated PDE in the absence of any drug. […] To give an indication of any inhibition of PDE by compounds, the activity of PDE in the presence of two concentrations of compound (approximately ten fold difference) were included in the assay. As there was no significant difference in the activity of PDE with or without the drug it was concluded that there was no inhibition of calmodulin-independent PDE by the drugs at the concentrations used. The percentage inhibition recorded for calmodulin-activated PDE was therefore due solely to the action of the drugs on the activity of calmodulin.

Row | SMILES | effect on PDE
47 | O=C(O)C(=O)O [oxalic acid] | none was found
